Experiment [1] deals with T1, ERK5 (Homo sapiens, UniProt Q13164). As to the kind of experiment: biochemical.
Target sequence in this assay (Q13164 55-347 limits assumed): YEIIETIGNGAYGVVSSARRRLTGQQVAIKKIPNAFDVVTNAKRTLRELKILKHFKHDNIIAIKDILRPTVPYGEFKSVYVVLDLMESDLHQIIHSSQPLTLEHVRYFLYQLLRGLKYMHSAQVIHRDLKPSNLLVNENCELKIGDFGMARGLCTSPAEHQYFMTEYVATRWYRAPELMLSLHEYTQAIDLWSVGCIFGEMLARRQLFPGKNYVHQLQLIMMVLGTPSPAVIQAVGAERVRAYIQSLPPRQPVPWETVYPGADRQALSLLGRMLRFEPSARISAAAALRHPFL
Method: (§1) Two assays were performed to assess the ERK5 inhibitory activity of compounds of the Examples, a cell-based assay and a cell-free biochemical assay.
An assay was performed to measure the capacity of each compound to inhibit ERK5 enzymatic activity. Compound potency was evaluated by Time-Resolved Forster Resonance Energy Transfer (FRET system). […] A mixture of 1 mM ATP and 1 μM biotinylated synthetic peptide was added (Biosyntan GmbH). This synthetic peptide represents amino acids 30-52 of Eukaryotic translation initiation factor 4E-binding protein 1 (see, e.g., the sequence under accession No. NP_004086.1) biotinylated at the N-terminus.
The target of experiment [2] is T1, ERK5. In words: cell-based.
Target sequence in this assay (Q13164 whole entry): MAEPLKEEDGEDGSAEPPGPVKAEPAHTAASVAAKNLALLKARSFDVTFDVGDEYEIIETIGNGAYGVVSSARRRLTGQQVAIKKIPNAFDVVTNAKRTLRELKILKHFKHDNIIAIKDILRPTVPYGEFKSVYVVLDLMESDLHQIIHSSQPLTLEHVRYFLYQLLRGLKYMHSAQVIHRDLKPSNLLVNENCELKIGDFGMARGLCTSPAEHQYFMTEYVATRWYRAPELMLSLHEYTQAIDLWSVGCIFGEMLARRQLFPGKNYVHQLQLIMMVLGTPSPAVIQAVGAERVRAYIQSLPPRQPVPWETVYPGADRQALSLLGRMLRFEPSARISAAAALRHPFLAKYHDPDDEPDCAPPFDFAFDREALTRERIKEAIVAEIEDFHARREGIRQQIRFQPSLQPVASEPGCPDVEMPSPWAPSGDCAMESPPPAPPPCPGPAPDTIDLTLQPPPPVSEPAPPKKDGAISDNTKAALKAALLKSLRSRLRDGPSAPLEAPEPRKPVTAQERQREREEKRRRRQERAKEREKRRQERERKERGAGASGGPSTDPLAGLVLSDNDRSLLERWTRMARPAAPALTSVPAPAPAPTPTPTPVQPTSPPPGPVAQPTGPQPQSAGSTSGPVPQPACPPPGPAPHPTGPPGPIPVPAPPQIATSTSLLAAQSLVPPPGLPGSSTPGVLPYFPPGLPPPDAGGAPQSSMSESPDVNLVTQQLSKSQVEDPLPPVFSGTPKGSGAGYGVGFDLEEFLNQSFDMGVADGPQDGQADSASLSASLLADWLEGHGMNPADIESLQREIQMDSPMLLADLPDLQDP
Method: as §1
The renal cancer cell line SN12C was transduced by a lentivirus pGreenFire1 MEF2 EF1 Neo (ref TR030VA-N) from SBI using standard infection protocol. pGreenFire1 MEF2 EF1 Neo allows the expression of luciferase gene under the control of minimal promoter with MEF2 transcriptional response elements. Cells harboring the reporter construct were selected by geneticin treatment. The selected cells were then transposed by a piggyback based plasmid pCM4007 allowing the expression of constitutively activated MEK5DD under control of TREG3 promoter, a doxycycline regulated promoter. Transposed cells were selected by puromycin treatment. Upon doxycycline treatment (1 μg/ml) MEK5DD was expressed. MEK5DD activates ERK5 that phosphorylates MEF2C protein. Activated MEF2C protein can bind to its transcriptional response elements. Then the luciferase is expressed. In a 96-well plate (96F nuncleon ref137101 thermofisher), 50,000 cells were inoculated in 142.5 μl of RPMI medium containing 10% fetal calf serum, 1% glutamine, and 1 μg/ml doxycycline. […] The luciferase activity was measured using the Kit Bright Glo Luminescent Cell Assay Cat E2610 (Promega) according to the manufacturer's protocol. Luminescence was determined using 0.2 second reading/well using a Tecan SPARK. IC50 values were calculated using XLFIT5 for Microsoft Excel using method 205.

Our source for the IC50 values is patent US20260022116A1, “IMIDAZOPYRIDINE COMPOUNDS, PREPARATION THEREOF AND THERAPEUTIC USES THEREOF” (SANOFI, priority 2022, published 2026).

Take `Nc1cc(OC(F)(F)F)ccc1C(=O)N1CCC(c2ccnc3[nH]c(CC4CCOC4)nc23)CC1` (single isomer, unassigned) [Example 2, [2-Amino-4-(trifluoromethoxy)phenyl]-[4-[2-(tetrahydrofuran-3-ylmethyl)-3H-imidazo[4,5-b]pyridin-7-yl]-1-piperidyl]methanone]: the half-inhibitory concentration (IC50) (commonly the concentration that inhibits the measured activity by half) amounted to 0.14 µM in experiment [1] and 0.134 µM in experiment [2].
For `CN1CCC(c2nc3c(C4CCN(C(=O)c5ccc(OC(F)(F)F)cc5)CC4)ccnc3[nH]2)C1` (single isomer, unassigned) [Example 24, [4-[2-(1-Methylpyrrolidin-3-yl)-3H-imidazo[4,5-b]pyridin-7-yl]-1-piperidyl]-[4-(trifluoromethoxy)phenyl]methanone] the same measures were 0.148 µM and 0.15 µM.
For `Nc1cc(OC(F)(F)F)ccc1C(=O)N1CCC(c2ccnc3[nH]c(C4CNCCO4)nc23)CC1` (single isomer, unassigned) [Example 96, [2-amino-4-(trifluoromethoxy)phenyl]-[4-[2-[morpholin-2-yl]-3H-imidazo[4,5-b]pyridin-7-yl]-1-piperidyl]methanone] the same measures were 0.083 µM and 0.087 µM.
For `Nc1cc(OC(F)(F)F)ccc1C(=O)N1CCC(c2ccnc3[nH]c(C4COCCO4)nc23)CC1` (single isomer, unassigned) [Example 144, [2-amino-4-(trifluoromethoxy)phenyl]-[4-[2-[1,4-dioxan-2-yl]-3H-imidazo[4,5-b]pyridin-7-yl]-1-piperidyl]methanone] the same measures were 0.102 µM and 0.098 µM.
For `CC12CC(N)(C1)C(c1nc3c(C4CCN(C(=O)c5ccc(OC(F)(F)F)cc5N)CC4)ccnc3[nH]1)O2` (single isomer, unassigned) [Example 254, [4-[2-[4-amino-1-methyl-2-oxabicyclo[2.1.1]hexan-3-yl]-3H-imidazo[4,5-b]pyridin-7-yl]-1-piperidyl]-[2-amino-4-(trifluoromethoxy)phenyl]methanone], the IC50 in experiment [1] is 0.207 µM; in experiment [2], 0.203 µM.
For `O=C(c1ccc(S(F)(F)(F)(F)F)cc1)N1CCC(c2ccnc3[nH]c(C4CCCO4)nc23)CC1` (single isomer, unassigned) [Example 298, [4-(pentafluoro-λ^6-sulfanyl)phenyl]-[4-[2-[tetrahydrofuran-2-yl]-3H-imidazo[4,5-b]pyridin-7-yl]-1-piperidyl]methanone] the same measures were 0.166 µM and 0.163 µM.
For `O=C(c1ccc(S(F)(F)(F)(F)F)cc1)N1CCC(c2ccnc3[nH]c(C4CCOC4)nc23)CC1` (single isomer, unassigned) [Example 301, [4-(pentafluoro-λ^6-sulfanyl)phenyl]-[4-[2-[tetrahydrofuran-3-yl]-3H-imidazo[4,5-b]pyridin-7-yl]-1-piperidyl]methanone] the same measures were 0.273 µM and 0.284 µM.
For `Nc1cc(S(F)(F)(F)(F)F)ccc1C(=O)N1CCC(c2ccnc3[nH]c(C4CCOC4)nc23)CC1` (single isomer, unassigned) [Example 308, [2-amino-4-(pentafluoro-λ^6-sulfanyl)phenyl]-[4-[2-[tetrahydrofuran-3-yl]-3H-imidazo[4,5-b]pyridin-7-yl]-1-piperidyl]methanone] the same measures were 0.097 µM and 0.099 µM.
In turn, `O=C(c1ccc(S(F)(F)(F)(F)F)cc1)N1CCC(c2c(F)cnc3[nH]c(N4CCOCC4)nc23)CC1` [Example 449] returned a half-inhibitory concentration (IC50) in experiment [1] of 0.28 µM.
As to `O=C(c1ccc(S(F)(F)(F)(F)F)cc1)N1CCC(c2c(F)cnc3[nH]c([C@H]4CC[C@@](O)(C(F)(F)F)CC4)nc23)CC1` [Example 450, (trans)-[4-[6-fluoro-2-[4-hydroxy-4-(trifluoromethyl)cyclohexyl]-3H-imidazo[4,5-b]pyridin-7-yl]-1-piperidyl]-[4-(pentafluoro-λ^6-sulfanyl)phenyl]methanone], the half-maximal inhibitory concentration (IC50) in experiment [1] is 10.5 µM.
